According to patent publication US20080171659A1, “Insecticidally Coated Fertilizer Solids” (priority 2007, published 2008):

Type: physicochemical
Excerpt: U.S. Pat. No. 5,783,203 mentions acetone as a solvent for imidacloprid. […] Using a 6 wt % imidacloprid in acetone would mean applying 1.67 wt % of the solution on the fertilizer based on the combined weight of the fertilizer and the solution to achieve a product with 0.10 wt % imidacloprid. This would be very difficult to achieve a dry product. Fertilizer products with 0.2 wt % and 0.5 wt % imidacloprid would require 3.33 wt % and 8.33 wt % respectively of the imidacloprid solution absorbed onto the fertilizer; concentrations which are not likely feasible in acetone. In addition, acetone is volatile and highly flammable which would make processing very difficult and expensive.

Q: Which solubility does the source give for `O=[N+]([O-])NC1=NCCN1Cc1ccc(Cl)nc1` [imidacloprid] here?
A: less than 7 wt %
